Data reported in patent US20120021434A1, “METHOD FOR TREATING B CELL REGULATED AUTOIMMUNE DISORDERS” (Synta Pharmaceuticals Corp., priority 2005, published 2012).

Experiments:
Assay type in all cases: cell-based
[1] = tested on: IKKβ; experiment: Phosphorylation of IKKβ in IFNγ/LPS-stimulated THP-1 cells (immunoblot); conditions: THP-1 whole cell extracts, IFNγ/LPS 5 min to 1 hr, 500 nM
Experimental: The whole cell extracts were prepared using Cell Lysis Buffer (Cell Signaling, Beverly, Mass., USA) according to the manufacture's instruction.
The phosphorylation of IKK is an early step in NF-κB activation. To determine whether Compound 50 inhibits the activation of the IKK complex, the level of phosphorylated IKKβ was investigated in drug-treated, LPS-stimulated cells. Whole cell extracts were prepared from THP-1 cells that had been stimulated with IFNγ/LPS for 5 min, 15 min 30 min and 1 hr in the either the absence or presence of 500 nM Compound 50. Phosphorylated IKKβ was determined by immunoblot analysis using an anti-phospho IKKβ antibody. […] Compound 50 treatment had no effect on the induction of phosphorylated IKKβ.

[2] = molecular target: T1, c-Rel (Mus musculus, UniProt P15307); experiment: Immunofluorescence of c-Rel nuclear accumulation in LPS-stimulated RAW264.7 cells; conditions: 100 nM
T1 construct: nuclear extracts from RAW cells stimulated with LPS/IFNγ; endogenous in cells; host or cells: RAW264.7
T1 sequence (P15307 whole entry): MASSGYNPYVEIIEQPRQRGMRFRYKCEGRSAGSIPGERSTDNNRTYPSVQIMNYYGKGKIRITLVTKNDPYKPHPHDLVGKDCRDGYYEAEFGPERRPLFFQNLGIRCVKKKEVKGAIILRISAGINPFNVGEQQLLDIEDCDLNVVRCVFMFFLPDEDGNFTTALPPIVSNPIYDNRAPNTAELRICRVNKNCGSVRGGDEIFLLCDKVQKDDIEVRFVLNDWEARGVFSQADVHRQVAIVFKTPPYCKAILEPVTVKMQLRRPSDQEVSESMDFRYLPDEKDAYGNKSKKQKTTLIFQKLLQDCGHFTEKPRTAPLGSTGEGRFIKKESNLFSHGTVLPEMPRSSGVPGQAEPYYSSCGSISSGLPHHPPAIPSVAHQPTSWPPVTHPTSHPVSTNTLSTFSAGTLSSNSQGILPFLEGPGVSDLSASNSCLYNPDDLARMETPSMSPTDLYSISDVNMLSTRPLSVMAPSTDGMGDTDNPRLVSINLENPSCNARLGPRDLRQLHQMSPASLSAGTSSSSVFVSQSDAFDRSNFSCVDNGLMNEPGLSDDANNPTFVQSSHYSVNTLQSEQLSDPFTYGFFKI
Experimental: We next examined whether compound 50 can block the accumulation of c-Rel in the nucleus of cells induced by LPS (FIG. 2). RAW264.7 cells cultured in DMEM with 10% BCS were split and seeded into 4-well chambered slides at 80,000 cells/well density. The cells were then treated with DMSO, Compound 50 (100 nM), LPS (Sigma, 5 μg/mL), LPS (5 μg/mL)+Compound 50 (100 nM) for 4 hours and fixed with 3% paraformaldehyde solution (1×PBS) after 1× quick rinse with 1×PBS. Fixed cells were permeablized with 0.2% TX100 and immunostained with anti-cRel antibody (SC70, Santa Cruz, 1:200 dilution) or anti-NF-κB p65 antibody (SC109, Santa Cruz, 1:100 dilution), and subsequently stained with Alexa Fluor 488 Goat-anti-Rabbit secondary antibody and DAPI (Molecular Probes, 1.1 μM). Images were obtained with CoolSNAP monochrome CCD camera on a Nikon inverted microscope TE300 using identical imaging parameters and were processed identically with Photoshop CS software. As observed previously, c-Rel localized to the cytoplasm in DMSO-treated cells and to the nucleus in LPS-treated cells. […] We also examined whether Compound 50 blocks the nuclear accumulation of another NF-κB/Rel family member, p65, in LPS-stimulated RAW cells (FIG. 3). As observed for c-Rel, p65 was localized to the cytoplasm in DMSO and Compound 50-treated cells and to the nucleus in LPS-stimulated cells. […]

[3] = molecular target: T1, c-Rel; experiment: BD TransFactor assay of c-Rel DNA-binding activity in nuclear extracts of RAW 264.7 cells; conditions: LPS/IFNγ, 1000 nM, 30 min pre-treatment, 3 hrs
Experimental: In this study, we examined the effect of Compound 50 on the DNA-binding activity of nuclear c-Rel. The BD transfactor assay (a non-radioactive version of a super-shift assay) was used to measure the DNA-binding activity of c-Rel. In this assay, nuclear extracts are added to biotinylated double-stranded oligonucleotides containing the NF-κB binding site bound to a streptavidin 96-well plate. Detection of the transcription factor-DNA complex is performed with a specific primary antibody for c-Rel. The 96-well format allows for simultaneous measurement of multiple conditions and proteins using HRP-conjugated secondary antibodies whose enzymatic product can be measured using a luminometer. The level of c-Rel DNA-binding activity increased 40-fold (relative to DMSO control) in nuclear extracts from RAW cells stimulated with LPS/IFNγ.
Methods: 20×10^6 Raw 264.7 cells were treated with either DMSO, LPS/IFNγ, or LPS/IFNγ/Compound 50. (LPS conc. 1 ug/ml f.c.; mouse IFNγ mouse 100 U/ml f.c, Compound 501 uM f.c). (LPS: Sigma Cat # L2654. Mouse IFNγ; Cat # R+D 485-MICF). […]
After measurement of protein concentration using BioRad assay, the nuclear extract was used in a Chemiluminescent NF-κB TransFactor Kit (BD) according to the user manual. […] Finally, amount of bound antibody to the plate was detected by incubation with chemiluminescent substrate and subsequent detection with a luminometer. […]

[4] = molecular target: T1, c-Rel; experiment: Immunoblot and densitometry of nuclear c-Rel in LPS/IFNγ-stimulated Raw264.7 cells; conditions: Raw264.7, LPS/IFNγ, immunoblot densitometry
Experimental: Methods: 20×10^6 Raw 264.7 cells were treated with either DMSO, LPS/IFNγ, or LPS/IFNγ/Compound 50. (LPS conc. 1 ug/ml f.c.; mouse IFNγ mouse 100 U/ml f.c, Compound 501 uM f.c). (LPS: Sigma Cat # L2654. Mouse IFNγ; Cat # R+D 485-MICF). Cells were pre-treated with Compound 50 for 30 min, then LPS/IFNγ was added. After 3 hrs, nuclear and cytoplasmic extracts were prepared according to the BD™ TransFactor Extraction Kit and user manual. Briefly, cells were washed in PBS, harvested and lysed in hypotonic lysis buffer on ice. Cells were then disrupted by drawing the cell suspension through a No. 27 gauge needle 10 times. Next, the cell suspension was centrifuged, and the cytoplasmic extract (supernatant) was collected. The nuclear pellet was then disrupted by resuspension in high salt extraction buffer and was drawn through the needle 10 times. […]
After treatment with Compound 50, nuclear extract and cytoplasmic extract were prepared from 20×10^6 Raw264.7 cells by using Extraction kits from BD Biosciences (Cat. 631921), and above for experimental details. […] Densitometry analysis was performed using Quantity One software from BioRad.
The reduction in c-RelDNA-binding activity correlated with a 40-50% reduction in the levels of nuclear c-Rel as detected by immunoblot analysis (see immunoblot FIG. 14 and densitometry FIG. 15). […]

Cc1cccc(/C=N/Nc2cc(N3CCOCC3)nc(OCCc3ccccn3)n2)c1 [Compound 50, N-(3-Methyl-benzylidene)-N′-[6-morpholin-4-yl-2-(2-pyridin-2-yl-ethoxy)-pyrimidin-4-yl]-hydrazine]
induction of phosphorylated IKKβ [1]: no effect | LPS-induced accumulation of c-Rel in the nucleus ([2]; RAW264.7, LPS 5 μg/mL, 4 hours): inhibited | nuclear/cytoplasmic distribution of c-Rel ([2]; RAW264.7, absence of LPS, 4 h): did not alter | reduction in the level of c-Rel DNA-binding activity [3]: 40% | reduction in the levels of nuclear c-Rel [4]: 40-50%
